Measurements: US20200115357A1, “LIVER X RECEPTORS (LXR) MODULATORS” (Phenex-FXR GmbH, priority 2017, published 2020)

Experiments:
[1] = target: T1, LXRβ ligand-binding domain (LBD) (Homo sapiens, UniProt P55055, DUP175-175); assay: LXR Gal4 reporter transient transfection assay (M2H), Gal4β LBD; assay type: cell-based; conditions: HEK293 cells; read-out: M2H Gal4β LBD activity range (EC50)
T1 construct: LXRβ (amino acids 156-461); expressed in transfected cells; host or cells: HEK293
T1 sequence (P55055 with tags, fused parts or gaps DUP175-175): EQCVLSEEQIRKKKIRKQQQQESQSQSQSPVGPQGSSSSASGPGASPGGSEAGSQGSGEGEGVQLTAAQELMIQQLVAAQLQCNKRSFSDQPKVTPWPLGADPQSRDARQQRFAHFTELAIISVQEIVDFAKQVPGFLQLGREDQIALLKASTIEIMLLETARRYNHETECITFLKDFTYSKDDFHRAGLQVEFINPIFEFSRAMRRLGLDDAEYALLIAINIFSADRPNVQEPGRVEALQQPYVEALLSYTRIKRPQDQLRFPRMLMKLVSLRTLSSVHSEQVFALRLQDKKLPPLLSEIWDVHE
Procedure: (§1) The tested compounds were usually dissolved, tested and stored as 20 mM stock solutions in DMSO. Since sulfonyl acetic acid derivatives tend to decarboxylate under these conditions, these stock solutions were prepared, tested and stored as 20 mM DMSO stock solutions containing 100 mM trifluoroacetic acid (5 equivalents). Sulfonyl acetic acid derivatives are shelf stable as solid at rt for long time as reported by Griesbrecht et al. (Synlett 2010:374) or Faucher et al. (J. Med. Chem. 2004; 47:18).
(§2) LXR Gal4 Reporter Transient Transfection Assays
(§3) LXRα and LXRβ activity status was determined via detection of interaction with coactivator and corepressor proteins in mammalian two-hybrid experiments (M2H). For this, via transient transfection the full length (FL) proteins of LXRα (amino acids 1-447; NP005684; SEQ ID NO:7) or LXRβ-(amino acids 1-461; NP009052; SEQ ID NO:8) or the ligand-binding domains (LBD) of LXRα (amino acids 155-447 SEQ ID NO:3) or LXRβ (amino acids 156-461; SEQ ID NO:4) were expressed from pCMV-AD (Stratagene) as fusions to the transcriptional activation domain of NFkB. As cofactors, domains of either the steroid receptor coactivator 1 (SRC1; amino acids 552-887; SEQ ID NO:5) or of the corepressor NCoR (amino acids 1903-2312 SEQ ID NO:6) were expressed as fusions to the DNA binding domain of the yeast transcription factor GAL4 (from pCMV-BD; Stratagene). Interaction was monitored via activation of a coexpressed Firefly Luciferase Reporter gene under control of a promoter containing repetitive GAL4 response elements (vector pFRLuc; Stratagene). Transfection efficiency was controlled via cotransfection of constitutively active pRL-CMV Renilla reniformis luciferase reporter (Promega). HEK293 cells were grown in minimum essential medium (MEM) with 2 mM L-glutamine and Earle's balanced salt solution supplemented with 8.3% fetal bovine serum, 0.1 mM non-essential amino acids, 1 mM sodium pyruvate, at 37° C. in 5% CO2. 3.5×10^4 cells/well were plated in 96-well cell culture plates in growth medium supplemented with 8.3% fetal bovine serum for 16-20 h to ˜90% confluency. For transfection, medium was taken off and LXR and cofactor expressing plasmids as well as the reporter plasmids are added in 30 μL OPTIMEM/well including polyethylene-imine (PEI) as vehicle. Typical amounts of plasmids transfected/well: pCMV-AD-LXR (5 ng), pCMV-BD-cofactor (5 ng), pFR-Luc (100 ng), pRL-CMV (0.5 ng). Compound stocks were prepared in DMSO, prediluted in MEM to a total volume of 120 μL, and added 4 h after addition of the transfection mixture (final vehicle concentration not exceeding 0.2%). Cells were incubated for additional 16 h, lysed for 10 min in 1× Passive Lysis Buffer (Promega) and Firefly and Renilla luciferase activities were measured sequentially in the same cell extract using buffers containing D-luciferine and coelenterazine, respectively. Measurements of luminescence were done in a BMG-Iuminometer.

[2] = target: T2, LXRα ligand-binding domain (LBD) (Homo sapiens, UniProt Q13133); assay: LXR Gal4 reporter transient transfection assay (M2H), Gal4α LBD; assay type: cell-based; conditions: HEK293 cells; read-out: M2H Gal4α LBD activity range (EC50)
T2 construct: expressed in transfected cells; host or cells: HEK293
T2 sequence (Q13133 155-447): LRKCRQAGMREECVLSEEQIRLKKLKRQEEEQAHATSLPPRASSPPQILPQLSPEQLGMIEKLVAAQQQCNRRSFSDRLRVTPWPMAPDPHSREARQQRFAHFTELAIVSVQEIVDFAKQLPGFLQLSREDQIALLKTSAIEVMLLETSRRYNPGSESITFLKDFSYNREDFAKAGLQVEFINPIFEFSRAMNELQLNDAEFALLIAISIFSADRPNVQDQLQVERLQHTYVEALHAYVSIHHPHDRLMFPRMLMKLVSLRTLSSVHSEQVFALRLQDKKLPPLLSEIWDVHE
Procedure: as §1, §2, §3

[3] = target: T3, GST-LXRβ ligand-binding domain (Homo sapiens, UniProt P55055, DUP175-175); assay: TR-FRETβ activity assay (LXRβ-LBD / NCoA3 coactivator peptide, prestimulated with 24(S)-25-epoxycholesterol); assay type: biochemical; design: key to behavior in FRET assay: ag=agonist; ia=inverse agonist; conditions: for EC50: read-out: FRETβ activity range (EC50); for behavior in FRET assay: agonist or inverse agonist
T3 construct: amino acids 156-461; NP009052; made in house; host or cells: E. coli
T3 sequence (P55055 with tags, fused parts or gaps DUP175-175): T1 sequence (P55055 with tags, fused parts or gaps DUP175-175)
In short: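 E. coli-expressed GST-LXRβ LBD (aa 156-461) at 76 nM with biotinylated NCoA3 coactivator peptide (400 nM), in 240 mM KCl, BSA and Triton-X-100. Anti-GST-Tb cryptate/streptavidin-XL665 TR-FRET after 1 h equilibration at 4 °C, excitation 340 nm, emission 615 and 665 nm. Run in triplicate.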

[4] = target: T4, LXRα full length (FL) (Homo sapiens, UniProt Q13133); assay: LXR Gal4 reporter transient transfection assay (M2H), Gal4α FL; assay type: cell-based; conditions: HEK293 cells; read-out: M2H Gal4α FL activity range (EC50)
T4 construct: the full length (FL) proteins of LXRα (amino acids 1-447); NP005684; expressed in transfected cells; host or cells: HEK293
T4 sequence (Q13133 1-447): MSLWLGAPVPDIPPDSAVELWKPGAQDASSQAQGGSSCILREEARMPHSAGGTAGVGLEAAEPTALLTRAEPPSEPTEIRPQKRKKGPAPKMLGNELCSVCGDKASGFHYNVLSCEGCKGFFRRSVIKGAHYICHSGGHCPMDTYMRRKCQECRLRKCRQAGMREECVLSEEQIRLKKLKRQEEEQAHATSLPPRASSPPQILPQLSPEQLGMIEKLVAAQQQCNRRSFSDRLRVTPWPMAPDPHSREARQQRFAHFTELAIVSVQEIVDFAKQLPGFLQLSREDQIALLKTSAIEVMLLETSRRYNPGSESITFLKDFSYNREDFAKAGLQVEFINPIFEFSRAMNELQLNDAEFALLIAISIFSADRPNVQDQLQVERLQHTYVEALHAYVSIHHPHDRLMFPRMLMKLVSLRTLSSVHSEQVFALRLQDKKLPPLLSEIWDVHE
In short: (§4)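 Mammalian two-hybrid in HEK293 cells transiently transfected with LXRα/β full-length or LBD fused to NFkB activation domain, plus GAL4-DBD fusions of SRC1 coactivator or NCoR corepressor domains and a GAL4-responsive firefly luciferase reporter. Compounds added 4 h post-transfection (vehicle ≤0.2% DMSO), 16 h incubation; firefly luciferase normalized to Renilla.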

[5] = target: T5, LXRβ full length (FL) (Homo sapiens, UniProt P55055, DUP175-175); assay: LXR Gal4 reporter transient transfection assay (M2H), Gal4β FL; assay type: cell-based; conditions: HEK293 cells; read-out: M2H Gal4β FL activity range (EC50)
T5 construct: the full length (FL) proteins of LXRα (amino acids 1-447); NP005684; NP009052; expressed in transfected cells; host or cells: HEK293
T5 sequence (P55055 with tags, fused parts or gaps DUP175-175): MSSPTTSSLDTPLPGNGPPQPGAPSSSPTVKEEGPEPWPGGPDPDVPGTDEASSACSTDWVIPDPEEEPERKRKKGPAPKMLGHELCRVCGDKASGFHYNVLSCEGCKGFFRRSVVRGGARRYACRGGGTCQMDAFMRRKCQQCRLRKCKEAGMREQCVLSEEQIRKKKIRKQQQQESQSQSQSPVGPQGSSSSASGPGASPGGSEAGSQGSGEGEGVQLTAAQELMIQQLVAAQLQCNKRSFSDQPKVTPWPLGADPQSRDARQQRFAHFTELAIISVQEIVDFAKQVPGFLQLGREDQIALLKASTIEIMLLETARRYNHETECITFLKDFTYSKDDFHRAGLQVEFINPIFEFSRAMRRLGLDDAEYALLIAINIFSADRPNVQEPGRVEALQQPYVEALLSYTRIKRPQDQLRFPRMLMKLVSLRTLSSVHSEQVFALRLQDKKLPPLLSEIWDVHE
In short: as §4

[6] = 1 μM 24(S)-25-epoxycholesterol as prestimulating agonist

Compound | EC50 [1] [nM] | EC50 [2] [nM] | EC50 [3, 6] [nM] | behavior in FRET assay [3] | EC50 [4] [nM] | EC50 [5] [nM] | FRETβ activity range (EC50) [3, 6]
Cc1cc(C)c(S(=O)(=O)N(Cc2ccc(-c3cccc(CC(=O)O)c3)cc2)Cc2cccc(Br)c2)c(C)c1 [2/3] | 100 to 1000 | 100 to 1000 | 1000 to 10000 | ia |  |  | 
Cc1cc(C)c(S(=O)(=O)N(Cc2ccc(-c3cccc(CC(=O)O)c3)cc2)Cc2cccc(C(F)(F)F)c2)c(C)c1 [2/4] | < 100 | 100 to 1000 | 100 to 1000 | ia |  |  | 
Cc1cc(C)c(S(=O)(=O)N(Cc2ccc(-c3cccc(OCC(=O)O)c3)cc2)Cc2ccc(C(F)(F)F)o2)c(C)c1 [5/3] | 100 to 1000 | 100 to 1000 | 1000 to 10000 | ia |  |  | 
Cc1cc(C)c(S(=O)(=O)N(Cc2ccc(-c3cccc(C(F)(F)C(=O)O)c3)cc2)Cc2ccc(C(F)(F)F)o2)c(C)c1 [5/4] | 100 to 1000 | 100 to 1000 | 100 to 1000 | ia |  |  | 
Cc1cc(C)c(S(=O)(=O)N(Cc2ccc(-c3cccc(S(=O)(=O)CCCC(=O)O)c3)cc2)Cc2ccc(C(F)(F)F)o2)c(C)c1 [7/2] | 100 to 1000 | 100 to 1000 | 1000 to 10000 | ia |  |  | 
Cc1cc(C)c(S(=O)(=O)N(Cc2ccc(-c3cccc(C(C)C(=O)O)c3)cc2)Cc2ccc(C(F)(F)F)o2)c(C)c1 (stereo not shown) [7/4] | < 100 | < 100 | 100 to 1000 | ia |  |  | 
Cc1cc(C)c(S(=O)(=O)N(CCc2ccc(C(F)(F)F)o2)Cc2ccc(-c3cccc(S(=O)(=O)CC(=O)O)c3)cc2)c(C)c1 [Example 17/1] |  |  | 1000 to 10000 | ia | 1000 to 10000 | 1000 to 10000 | 

The next lines start with the values.

EC50 [1] [nM] | EC50 [2] [nM] | EC50 [3, 6] [nM] | behavior in FRET assay [3] | EC50 [4] [nM] | EC50 [5] [nM] | FRETβ activity range (EC50) [3, 6] | Compound
 |  | 100 to 1000 | ia | < 100 | < 100 |  | CC(C)(C(=O)O)c1cccc(-c2ccc(CN(Cc3ccc(C(F)(F)F)o3)S(=N)(=O)c3cccc4ccccc34)cc2)c1 (stereo not shown) [Example 26, 2-Methyl-2-(4′-((N-((5-(trifluoromethyl)furan-2-yl)methyl)naphthalene-1-sulfonoamid-imidamido)methyl)-[1,1′-biphenyl]-3-yl)propanoic acid]
 |  | 100 to 1000 | ia | < 100 | < 100 |  | Cc1ccc2ccccc2c1[S+]([O-])N(Cc1ccc(-c2cccc(C(C)(C)C(=O)O)c2)cc1)Cc1ccc(C(F)(F)F)o1 (stereo not shown) [Example 27, 2-Methyl-2-(4′-((((2-methylnaphthalen-1-yl)sulfinyl)((5-(trifluoromethyl)furan-2-yl)methyl)amino)methyl)-[1,1′-biphenyl]-3-yl)propanoic acid]
 |  |  |  | 100 to 1000 | 100 to 1000 | inactive | Cc1ccc2cccnc2c1S(=O)(=O)N(Cc1ccc(-c2cccc(C(C)(C)C(=O)NS(C)(=O)=O)c2)cc1)Cc1ccc(C(F)(F)F)o1 [Example 29, 2-Methyl-2-(4′-(((7-methyl-N-((5-(trifluoromethyl)furan-2-yl)methyl)quinoline)-8-sulfon-amido)methyl)-[1,1′-biphenyl]-3-yl)-N-(methylsulfonyl)propanamide]
 |  | 100 to 1000 | ag | < 100 | < 100 |  | Cc1ccc2cccnc2c1S(=O)(=O)N(Cc1ccc(-c2cccc(C(C)(C)C(=O)NO)c2)cc1)Cc1ccc(C(F)(F)F)o1 [Example 30, N-Hydroxy-2-methyl-2-(4′-(((7-methyl-N-((5-(trifluoromethyl)furan-2-yl)methyl)quinoline)-8-sulfonamido)methyl)-[1,1′-biphenyl]-3-yl)propanamide]
